Data from PubChem BioAssay (NCI).
Where “and” joins values, the source holds several entries; their conditions need not be identical. Identical values can stand only once.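 1) Cells in 96-well plates. 2) Compound, 48 h, 5 concentrations. 3) Linear interpolation between surrounding doses. 4) Unreached endpoint = highest concentration. GI50 is the concentration that inhibits growth by half. The concentration for full growth arrest is given as TGI.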

Key:
Test in all cases: growth of human tumour cells (NCI), 48 h
786-0 renal = tested on: 786-0 renal
ACHN renal = tested on: ACHN renal
CCRF-CEM leukemia = tested on: CCRF-CEM leukemia
K-562 leukemia = tested on: K-562 leukemia
MALME-3M melanoma = tested on: MALME-3M melanoma
NCI-H23 lung = tested on: NCI-H23 lung
SF-295 CNS = tested on: SF-295 CNS
SK-MEL-5 melanoma = tested on: SK-MEL-5 melanoma
SK-OV-3 ovarian = tested on: SK-OV-3 ovarian
SW-620 colon = tested on: SW-620 colon

Row | SMILES | GI50 (786-0 renal) | TGI (786-0 renal) | GI50 (ACHN renal) | TGI (ACHN renal) | GI50 (CCRF-CEM leukemia) | TGI (CCRF-CEM leukemia) | GI50 (K-562 leukemia) [µM] | TGI (K-562 leukemia) | GI50 (MALME-3M melanoma) | TGI (MALME-3M melanoma) [µM] | GI50 (NCI-H23 lung) | TGI (NCI-H23 lung) | GI50 (SF-295 CNS) | TGI (SF-295 CNS) | GI50 (SK-MEL-5 melanoma) | TGI (SK-MEL-5 melanoma) | GI50 (SK-OV-3 ovarian) | TGI (SK-OV-3 ovarian) | GI50 (SW-620 colon) | TGI (SW-620 colon)
1 | CC1(C)[C@@H](OC(N)=O)[C@H]2O[C@H]2[C@]2(C=O)[C@H]3CC[C@]4(C)[C@@H](c5ccc(=O)oc5)[C@@H](Cl)C[C@]4(O)C3=CC[C@@H]12 | 0.00489 µM | 0.0105 µM | 0.00403 µM | 0.00892 µM | 0.00571 µM | 0.0147 µM | 0.00698 | 0.0253 µM | 0.00629 µM | 0.0138 | 0.00379 µM | 0.0111 µM | 0.00522 µM | 0.0118 µM | 0.00459 µM | 0.00887 µM | 0.007 µM | 0.0203 µM | 0.00529 µM | 0.0115 µM
2 | COc1ccc(C(=O)COc2ccc(/C=C3\COc4ccc(OC)cc4C3=O)cc2)cc1 | 16.7 µM | 37.9 µM | 29.7 µM | > 100 µM | 2.86 µM | 10.2 µM | 4.09 | 61.2 µM | 57.2 µM | > 100 | 9.67 µM | 32.8 µM | 14.5 µM | 38.1 µM | 24.6 µM | > 100 µM | 30.6 µM | 81 µM | 4.99 µM | > 100 µM
3 | CCc1nc(C(N)=O)c(Nc2ccc(N3CCC(N4CCN(C)CC4)CC3)c(OC)c2)nc1NC1CCOCC1 | 2.48 µM and 0.461 µM and 2.38 µM | 13.8 µM and > 10 µM and 14.1 µM | 2.07 µM and 0.42 µM and 1.48 µM | 17.1 µM and > 10 µM and 15.4 µM | 3.76 µM and 0.901 µM and 7.12 µM | 30.1 µM and > 10 µM and 44.4 µM | – | 33 µM and > 2.39 µM and 45.4 µM | 0.946 µM and 0.239 µM and 0.764 µM | – | 1.48 µM and 0.386 µM and 1.2 µM | 23.5 µM and > 2.7 µM and 24.7 µM | 3.59 µM and 1.02 µM and 4.54 µM | 15.3 µM and > 3.5 µM and 17.3 µM | 12.4 µM and > 10 µM and 13.2 µM | 25.4 µM and > 10 µM and 26.4 µM | 1.57 µM and 0.397 µM and 1.51 µM | 12.3 µM and > 10 µM and 13.8 µM | 1.33 µM and 0.366 µM and 1.29 µM | 13.6 µM and > 10 µM and 14.8 µM
4 | O=c1c2cc(Br)cc(Br)c2nc(CCCl)n1CCO | – | > 100 µM | – | > 100 µM | – | > 100 µM | – | > 100 µM | – | > 100 | – | > 100 µM | – | > 100 µM | – | > 100 µM | – | > 100 µM | – | > 100 µM
5 | CCn1c(SCc2ccc(C)cc2)nnc1-c1nn(-c2ccc(Cl)cc2Cl)c(-c2ccc(Cl)cc2)c1C | 2.69 µM | 12.2 µM | 2.74 µM | 10.4 µM | 2.51 µM | 13.5 µM | 0.836 | 10.4 µM | 2.15 µM | 8.88 | 2.24 µM | 12.5 µM | 2.4 µM | 11.7 µM | 1.4 µM | 2.74 µM | 2.58 µM | 8.18 µM | 2.56 µM | 12.6 µM
6 | CCCCON(OC(=O)c1ccc2ccc3cccc4ccc1c2c34)C(C)=O | 19.6 µM | 38.2 µM | 21.7 µM | 51.6 µM | 16.3 µM | 41.4 µM | 20.9 | 50.2 µM | 18.3 µM | 37.5 | 17 µM | 35.5 µM | 30.3 µM | > 100 µM | 16.9 µM | 32.5 µM | 40.1 µM | > 100 µM | 18.5 µM | 39.1 µM
7 | C=C1C(=O)OC2/C=C(\COC(C)=O)CCC(OC(C)=O)C3=CC(OC3=O)C12 (stereo not drawn) | – | 20.9 µM | – | 9.13 µM | – | 4.63 µM | – | 7.63 µM | – | 4.41 | – | 20.7 µM | – | 32.6 µM | – | 26.7 µM | – | 28.4 µM | – | 4.47 µM
8 | ClCC[N+]12CC[N+](CCCl)(CC1)C2 | – | > 100 µM | – | > 100 µM | – | > 100 µM | – | > 100 µM | – | > 100 | – | > 100 µM | – | > 100 µM | – | > 100 µM | – | > 100 µM | – | > 100 µM
9 | C1C[OH+]CC[OH+]CC[OH+]CC[OH+]CC[OH+]1.[Cl-].[V] | 19 µM | 43.7 µM | 75 µM | > 100 µM | > 100 µM | > 100 µM | > 100 | > 100 µM | 13.4 µM | 32 | 76.9 µM | > 100 µM | 28.5 µM | > 100 µM | 7.48 µM | 26.6 µM | 67.8 µM | > 100 µM | > 100 µM | > 100 µM
10 | CC/C=C\C[C@H]1C/C=C2/C(=O)C=C[C@@H]2C/C=C\CCCC(=O)O1 | 0.637 µM | 1.89 µM | 0.197 µM | 0.393 µM | 0.339 µM | 5.04 µM | 0.353 | > 54.5 µM | 1.92 µM | 4.86 | 1.89 µM | 5.03 µM | 2.17 µM | 5.44 µM | 1.38 µM | 2.74 µM | 3.99 µM | 12.9 µM | 0.454 µM | 5.52 µM
